# Measured values reported in patent US12516039B2, “N-linked isoquinoline amides as LRRK2 inhibitors, pharmaceutical compositions, and uses thereof” (Merck Sharp & Dohme LLC, priority 2020, dated 2026).
# Target: T1, GST-tagged truncated human mutant G2019S LRRK2 (Homo sapiens, UniProt Q5S007, G2019S)
# T1 construct: GST-tagged truncated human mutant G2019S LRRK2; purchased Life Technologies Corporation (Carlsbad, CA)
# Assay: LRRK2 G2019S Km ATP LanthaScreen assay
# Assay type: biochemical
# Settings: 134 μM ATP (Km ATP), LRRKtide substrate, mean of several tests, read-out: LRRK2 pIC50 (converted)
# Description: Unless otherwise noted, all reactions are magnetically stirred. Unless otherwise noted, when diethyl ether is used in the experiments described below, it is Fisher ACS certified material and is stabilized with BHT. Unless otherwise noted, “concentrated” and/or “solvent removed under reduced pressure” means evaporating the solvent from a solution or mixture using a rotary evaporator or vacuum pump. Unless otherwise noted, flash chromatography is carried out on a Teledyne Isco (Lincoln, NE), Analogix (Burlington, WI), or Biotage (Stockholm, SWE) automated chromatography system using a commercially available cartridge as the column. Columns may be purchased from Teledyne Isco, Analogix, Biotage, Varian (Palo Alto, CA), or Supelco (Bellefonte, PA) and are usually filled with silica gel as the stationary phase. Reverse phase prep-HPLC conditions, where used, can be found at the end of each experimental section. Aqueous solutions were concentrated on a Genevac (Ipswich, ENG) or by freeze-drying/lyophilization. Unless otherwise noted, all LRRK2 pIC50 data presented in tables refers to the LRRK2 G2019S Km ATP LanthaScreen™ assay (Life Technologies Corp., Carlsbad, CA) that is described in the Biological Assay section.
# Biological Assay: LRRK2 Km ATP LanthaScreen™ Assay
# The LRRK2 kinase activity reported herein as IC50 values was determined with LanthaScreen™ technology from Life Technologies Corporation (Carlsbad, CA) using GST-tagged truncated human mutant G2019S LRRK2 in the presence of the fluorescein-labeled peptide substrate LRRKtide, also from Life Technologies. The data presented for the Km ATP LanthaScreen™ Assay represents mean IC50 values based on several test results and may have reasonable deviations depending on the specific conditions and reagents used. Assays were performed in the presence of 134 μM ATP (Km ATP). Upon completion, the assay was stopped and phosphorylated substrate detected with a terbium (Tb)-labeled anti-pERM antibody (cat. no. PV4898). The compound dose response was prepared by diluting a 10 mM stock of compound to a maximum concentration of 9.99 μM in 100% dimethylsulfoxide followed by custom fold serial dilution in dimethylsulfoxide nine times. Twenty nanoliters of each dilution was spotted via a Labcyte Echo onto a 384-well black-sided plate (Corning 3575) followed by 15 μl of a 1.25 nM enzyme solution in 1× assay buffer (50 mM Tris pH 8.5, 10 mM MgCl2, 0.01% Brij-35, 1 mM EGTA, 2 mM dithiothreitol, 0.05 mM sodium orthovanadate). Following a 15-minute incubation at room temperature, the kinase reaction was started with the addition of 5 μl of 400 nM fluorescein-labeled LRRKtide peptide substrate and 134 μM ATP solution in 1× assay buffer. The reaction was allowed to progress at ambient temperature for 90 minutes. The reaction was then stopped by the addition of 20 μl of TR-FRET Dilution Buffer (Life Technologies, Carlsbad, CA) containing 2 nM Tb-labeled anti-phospho LRRKtide antibody and 10 mM EDTA (Life Technologies, Carlsbad, CA). After an incubation of 1 hour at room temperature, the plate was read on an EnVision multimode plate reader (Perkin Elmer, Waltham, MA) with an excitation wavelength of 337 nm (Laser) and a reading emission at both 520 and 495 nm. Compound IC50s were interpolated from nonlinear regression best fits of the log of the final compound concentration, plotted as a function of the 520/495-nm emission ratio using Activity base. Abase uses a 4 parameter (4P) logistic fit based on the Levenberg-Marquardt algorithm.
# T1 sequence (Q5S007 970-2527 G2019S limits assumed): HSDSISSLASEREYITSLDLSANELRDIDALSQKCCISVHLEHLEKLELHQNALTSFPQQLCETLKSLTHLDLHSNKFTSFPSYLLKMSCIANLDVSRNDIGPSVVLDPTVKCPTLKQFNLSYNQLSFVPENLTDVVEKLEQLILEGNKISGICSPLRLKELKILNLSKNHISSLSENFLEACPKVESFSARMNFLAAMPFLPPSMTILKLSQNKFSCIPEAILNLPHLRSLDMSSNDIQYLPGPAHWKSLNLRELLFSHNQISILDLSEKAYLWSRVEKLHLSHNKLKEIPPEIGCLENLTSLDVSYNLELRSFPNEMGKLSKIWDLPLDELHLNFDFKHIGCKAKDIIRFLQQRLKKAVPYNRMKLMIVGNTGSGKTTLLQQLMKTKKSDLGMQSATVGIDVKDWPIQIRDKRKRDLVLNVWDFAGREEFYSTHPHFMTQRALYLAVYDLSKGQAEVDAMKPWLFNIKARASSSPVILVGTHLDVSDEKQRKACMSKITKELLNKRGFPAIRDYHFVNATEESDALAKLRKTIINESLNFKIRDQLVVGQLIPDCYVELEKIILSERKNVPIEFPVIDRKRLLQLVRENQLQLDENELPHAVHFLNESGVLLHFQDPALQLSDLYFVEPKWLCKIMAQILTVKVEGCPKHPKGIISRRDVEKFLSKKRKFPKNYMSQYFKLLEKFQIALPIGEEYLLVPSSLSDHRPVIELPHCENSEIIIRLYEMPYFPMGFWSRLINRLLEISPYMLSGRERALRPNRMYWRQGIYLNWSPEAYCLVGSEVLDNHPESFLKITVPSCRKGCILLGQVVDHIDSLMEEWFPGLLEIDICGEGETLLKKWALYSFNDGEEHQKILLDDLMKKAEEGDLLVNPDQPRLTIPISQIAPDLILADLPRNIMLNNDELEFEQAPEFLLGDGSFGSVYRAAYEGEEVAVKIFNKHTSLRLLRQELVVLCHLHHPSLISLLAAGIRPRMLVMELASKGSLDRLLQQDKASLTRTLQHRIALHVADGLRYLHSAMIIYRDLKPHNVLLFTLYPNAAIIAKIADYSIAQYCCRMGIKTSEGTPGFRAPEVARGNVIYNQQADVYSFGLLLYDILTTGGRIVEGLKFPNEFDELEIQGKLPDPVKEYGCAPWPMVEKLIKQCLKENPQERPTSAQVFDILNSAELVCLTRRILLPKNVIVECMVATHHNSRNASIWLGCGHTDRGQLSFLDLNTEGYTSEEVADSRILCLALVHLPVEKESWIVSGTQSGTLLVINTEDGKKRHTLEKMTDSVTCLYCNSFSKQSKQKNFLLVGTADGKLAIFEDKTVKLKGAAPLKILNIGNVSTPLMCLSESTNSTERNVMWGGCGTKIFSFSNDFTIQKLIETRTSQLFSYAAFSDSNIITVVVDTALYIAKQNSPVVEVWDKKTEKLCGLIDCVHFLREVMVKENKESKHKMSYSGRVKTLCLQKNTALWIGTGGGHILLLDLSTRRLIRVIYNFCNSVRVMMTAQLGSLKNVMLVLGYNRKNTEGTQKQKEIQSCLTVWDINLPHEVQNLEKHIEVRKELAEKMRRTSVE
row,Structure (SMILES),IC50 [nM]
1,CC1(N2CCN(c3cc4cc(NC(=O)C5CC56CCOCC6)ncc4cc3Cl)CC2)COCC1C#N (racemic) [Ex-18.1],0.912
4,"O=C(Nc1cc2cc(N3CCN(C4COCC4O)CC3)c(Cl)cc2cn1)C1CC1 (single isomer, unassigned) [Ex-1.3, (3R,4R or 3S,4S)-N-(7-chloro-6-(4-(4-hydroxytetrahydrofuran-3-yl)piperazin-1-yl)isoquinolin-3-yl)cyclopropanecarboxamide]",1.95
5,"O=C(Nc1cc2cc(N3CCN(C4COCC4O)CC3)c(Cl)cc2cn1)C1CC1 (single isomer, unassigned) [Ex-1.4, (3R,4R or 3S,4S)-N-(7-chloro-6-(4-(4-hydroxytetrahydrofuran-3-yl)piperazin-1-yl)isoquinolin-3-yl)cyclopropanecarboxamide]",57.5
6,"CC1(N2CCN(c3cc4cc(NC(=O)C5CC5)ncc4cc3F)CC2)COCC1O (single isomer, unassigned) [Ex-1.5, (3R,4R or 3S,4S)-N-(7-fluoro-6-(4-(4-hydroxy-3-methyltetrahydrofuran-3-yl)piperazin-1-yl)isoquinolin-3-yl)cyclopropanecarboxamide]",7.08
7,"CC1(N2CCN(c3cc4cc(NC(=O)C5CC5)ncc4cc3F)CC2)COCC1O (single isomer, unassigned) [Ex-1.6, (3R,4R or 3S,4S)-N-(7-fluoro-6-(4-(4-hydroxy-3-methyltetrahydrofuran-3-yl)piperazin-1-yl)isoquinolin-3-yl)cyclopropanecarboxamide]",912
8,"CC1(N2CCN(c3cc4cc(NC(=O)C5CC56CCC6)ncc4cc3Cl)CC2)COCC1O (single isomer, unassigned) [Ex-1.7, (1R or 1S)-N-(7-chloro-6-(4-((3R,4R or 3S,4S)-4-hydroxy-3-methyltetrahydrofuran-3-yl)piperazin-1-yl)isoquinolin-3-yl)spiro[2.3]hexane-1-carboxamide]",6.61
9,"CC1(N2CCN(c3cc4cc(NC(=O)C5CC56CCC6)ncc4cc3Cl)CC2)COCC1O (single isomer, unassigned) [Ex-1.8, (1R or 1S)-N-(7-chloro-6-(4-((3R,4R or 3S,4S)-4-hydroxy-3-methyltetrahydrofuran-3-yl)piperazin-1-yl)isoquinolin-3-yl)spiro[2.3]hexane-1-carboxamide]",2.34
10,"CC1(N2CCN(c3cc4cc(NC(=O)C5C6COCC65)ncc4cc3Cl)CC2)COCC1O (single isomer, unassigned) [Ex-1.9, (1R or S)-N-(7-chloro-6-(4-((3R,4R or 3S,4S)-4-hydroxy-3-methyltetrahydrofuran-3-yl)piperazin-1-yl)isoquinolin-3-yl)-3-oxabicyclo[3.1.0]hexane-6-carboxamide]",0.794
11,"CC1(N2CCN(c3cc4cc(NC(=O)C5C6COCC65)ncc4cc3Cl)CC2)COCC1O (single isomer, unassigned) [Ex-1.10, (1R or S)-N-(7-chloro-6-(4-((3R,4R or 3S,4S)-4-hydroxy-3-methyltetrahydrofuran-3-yl)piperazin-1-yl)isoquinolin-3-yl)-3-oxabicyclo[3.1.0]hexane-6-carboxamide]",107
12,"CC1(N2CCN(c3cc4cc(NC(=O)C5CC56CCCOC6)ncc4cc3Cl)CC2)COCC1O (single isomer, unassigned) [Ex-1.11, (1R,3S, or 1R,3R, or 1S,3S, or 1S,3R)-N-(7-chloro-6-(4-((3R,4R or 3S,4S)-4-hydroxy-3-methyltetrahydrofuran-3-yl)piperazin-1-yl)isoquinolin-3-yl)-5-oxaspiro[2.5]octane-1-carboxamide]",1.7
13,"CC1(N2CCN(c3cc4cc(NC(=O)C5CC56CCCOC6)ncc4cc3Cl)CC2)COCC1O (single isomer, unassigned) [Ex-1.12, (1R,3S, or 1R,3R, or 1S,3S, or 1S,3R)-N-(7-chloro-6-(4-((3R,4R or 3S,4S)-4-hydroxy-3-methyltetrahydrofuran-3-yl)piperazin-1-yl)isoquinolin-3-yl)-5-oxaspiro[2.5]octane-1-carboxamide]",3.72
14,"CC1(N2CCN(c3cc4cc(NC(=O)C5CC56CCCOC6)ncc4cc3Cl)CC2)COCC1O (single isomer, unassigned) [Ex-1.13, (1R,3S, or 1R,3R, or 1S,3S, or 1S,3R)-N-(7-chloro-6-(4-((3R,4R or 3S,4S)-4-hydroxy-3-methyltetrahydrofuran-3-yl)piperazin-1-yl)isoquinolin-3-yl)-5-oxaspiro[2.5]octane-1-carboxamide]",275
15,"CC1(N2CCN(c3cc4cc(NC(=O)C5CC56CCCOC6)ncc4cc3Cl)CC2)COCC1O (single isomer, unassigned) [Ex-1.14, (1R,3S, or 1R,3R, or 1S,3S, or 1S,3R)-N-(7-chloro-6-(4-((3R,4R or 3S,4S)-4-hydroxy-3-methyltetrahydrofuran-3-yl)piperazin-1-yl)isoquinolin-3-yl)-5-oxaspiro[2.5]octane-1-carboxamide]",0.603
16,"CC1(N2CCN(c3cc4cc(NC(=O)C5CC56CCCOC6)ncc4cc3Cl)CC2)COCC1O (single isomer, unassigned) [Ex-1.15, (1R,3S, or 1R,3R, or 1S,3S, or 1S,3R)-N-(7-chloro-6-(4-((3R,4R or 3S,4S)-4-hydroxy-3-methyltetrahydrofuran-3-yl)piperazin-1-yl)isoquinolin-3-yl)-5-oxaspiro[2.5]octane-1-carboxamide]",46.8
17,"CC1(N2CCN(c3cc4cc(NC(=O)C5CC56CCCOC6)ncc4cc3Cl)CC2)COCC1O (single isomer, unassigned) [Ex-1.16, (1R,3S, or 1R,3R, or 1S,3S, or 1S,3R)-N-(7-chloro-6-(4-((3R,4R or 3S,4S)-4-hydroxy-3-methyltetrahydrofuran-3-yl)piperazin-1-yl)isoquinolin-3-yl)-5-oxaspiro[2.5]octane-1-carboxamide]",112
18,"CC1(N2CCN(c3cc4cc(NC(=O)C5CC56CCCOC6)ncc4cc3Cl)CC2)COCC1O (single isomer, unassigned) [Ex-1.17, (1R,3S, or 1R,3R, or 1S,3S, or 1S,3R)-N-(7-chloro-6-(4-((3R,4R or 3S,4S)-4-hydroxy-3-methyltetrahydrofuran-3-yl)piperazin-1-yl)isoquinolin-3-yl)-5-oxaspiro[2.5]octane-1-carboxamide]",776
19,"CC1(N2CCN(c3cc4cc(NC(=O)C5CC56CCCOC6)ncc4cc3Cl)CC2)COCC1O (single isomer, unassigned) [Ex-1.18, (1R,3S, or 1R,3R, or 1S,3S, or 1S,3R)-N-(7-chloro-6-(4-((3R,4R or 3S,4S)-4-hydroxy-3-methyltetrahydrofuran-3-yl)piperazin-1-yl)isoquinolin-3-yl)-5-oxaspiro[2.5]octane-1-carboxamide]",0.724
20,"CC1(N2CCN(c3cc4cc(NC(=O)C5CC56CCC(F)(F)CC6)ncc4cc3Cl)CC2)COCC1O (single isomer, unassigned) [Ex-1.19, (1R or 1S)-N-(7-chloro-6-(4-((3R,4R or 3S,4S)-4-hydroxy-3-methyltetrahydrofuran-3-yl)piperazin-1-yl)isoquinolin-3-yl)-6,6-difluorospiro[2.5]octane-1-carboxamide]",1.1
